Like-named read-outs stand apart in the source and are kept apart here.
Experiments:
[1] = tested on: Purified human neutrophils; experiment: Luminol enhanced chemiluminescence (neutrophil oxidative activity), fMLP stimulated; format: cell-based
Source text: Chemiluminescence Methods: Luminol enhanced chemiluminescence, a measure of neutrophil oxidative activity, is dependent upon both superoxide production and mobilization of the granule enzyme myeloperoxidase. The light is emitted from unstable high-energy oxygen species such as hypochlorous acid and singlet oxygen generated by activated neutrophils.
Purified human neutrophils (2×10^6/ml) suspended in Hanks balanced salt solution containing 0.1% human serum albumin (HA), adenosine deaminase (1 U/mL) and rolipram (100 nM) were incubated (37 C) in a water bath for 15 min with or without rhTNF (10 U/ml). Following incubation 100 µL aliquots of the PMN were transferred to wells (White walled clear bottom 96 well tissue culture plates Costar #3670; 2 wells/condition) containing […] and luminol (final concentration 100M) with or without adenosine agonist (final agonist concentrations 0.01-1000 nM). The plate was incubated 5 min (37 C) and then fMLP (50 l in HA; final concentration […]) was added to all wells.
Peak chemiluminescence was determined with a Victor 1420 Multilabel Counter in the chemiluminescence mode using the Wallac Workstation software. Data are presented as peak chemiluminescence as percent of activity in the absence of an adenosine agonist. The EC50 was determined using PRISM software. All compounds were tested with PMNs from three separate donors.

[2] = biological target: T1, recombinant human A2A receptors (Homo sapiens, UniProt P29274); experiment: Radioligand competition binding with 125I-APE or 125I-ZM241385, Sf9 cell membranes; conditions: 125I-APE or 125I-ZM241385, Sf9 membranes
T1 construct: expressed in transfected cells; host or cells: Sf9 insect cells infected with virus; membranes
T1 sequence (P29274 whole entry): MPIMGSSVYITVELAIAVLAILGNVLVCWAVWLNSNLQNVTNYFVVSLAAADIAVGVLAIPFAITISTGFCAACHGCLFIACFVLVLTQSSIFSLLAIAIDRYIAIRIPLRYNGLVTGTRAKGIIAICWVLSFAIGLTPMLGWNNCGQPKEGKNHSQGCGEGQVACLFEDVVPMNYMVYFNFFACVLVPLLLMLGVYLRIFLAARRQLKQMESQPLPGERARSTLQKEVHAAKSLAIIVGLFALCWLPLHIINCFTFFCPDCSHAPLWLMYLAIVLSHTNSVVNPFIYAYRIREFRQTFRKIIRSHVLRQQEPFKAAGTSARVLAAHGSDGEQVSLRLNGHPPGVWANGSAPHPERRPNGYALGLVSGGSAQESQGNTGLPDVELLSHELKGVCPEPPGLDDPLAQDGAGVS
Protocol: Cell culture and membrane preparation. Sf9 cells were cultured in Grace's medium supplemented with 10% fetal bovine serum, 2.5 μg/ml amphotericin B and 50 μg/ml gentamycin in an atmosphere of 50% N2/50% O2. Viral infection was performed at a density of 2.5×10^6 cells/mL with a multiplicity of infection of two for each virus used. Infected cells were harvested 3 days post-infection and washed twice in insect PBS (PBS pH 6.3). Cells were then resuspended in lysis buffer (20 mM HEPES pH 7.5, 150 mM NaCl, 3 mM MgCl2, 1 mM α-mercaptoethanol (BME), 5 μg/mL leupeptin, 5 μg/mL pepstatin A, 1 μg/mL aprotinin, and 0.1 mM PMSF) and snap frozen for storage at −80° C. Cells were thawed on ice, brought to 30 mL total volume in lysis buffer, and burst by N2 cavitation (600 psi for 20 minutes). A low-speed centrifugation was performed to remove any unlysed cells (1000×g for 10 minutes), followed by a high-speed centrifugation (17,000×g for 30 minutes). The pellet from the final centrifugation was homogenized in buffer containing 20 mM HEPES pH 8, 1100 mM NaCl, 1% glycerol, 2 μg/mL leupeptin, 2 μg/mL pepstatin A, 2 μg/mL Aprotinin, 0.1 mM PMSF, and 10 μM GDP using a small glass homogenizer followed by passage through a 26 gauge needle. Membranes were aliquoted, snap frozen in liquid N2, and stored at −80° C.
Radioligand Binding Assays. […] Binding experiments were performed in triplicate with 5 μg (A2A) or 25 μg (A1 and A3) membrane protein in a total volume of 00.1 mL HE buffer (20 mM HEPES and 1 mM EDTA) with 1 U/mL adenosine deaminase and 5 mM MgCl2 with or without 50 μM GTPγS. Membranes were incubated with radioligands at room temperature for three hours (for agonists) or two hours (for antagonists) in Millipore Multiscreen® 96-well GF/C filter plates and assays were terminated by rapid filtration on a cell harvester (Brandel, Gaithersburg, Md.) followed by 4×150 μl washes over 30 seconds with ice cold 10 mM Tris-HCl, pH 7.4, 10 mM MgCl2. Nonspecific binding was measured in the presence of 50 μM NECA.

human A3 AR = biological target: T2, human A3 AR (Homo sapiens, UniProt P0DMS8); experiment: Radioligand competition binding with 125I-ABA, membranes of HEK 293 cells stably expressing the receptor
T2 construct: expressed in transfected cells; membranes
T2 sequence (P0DMS8 1-318): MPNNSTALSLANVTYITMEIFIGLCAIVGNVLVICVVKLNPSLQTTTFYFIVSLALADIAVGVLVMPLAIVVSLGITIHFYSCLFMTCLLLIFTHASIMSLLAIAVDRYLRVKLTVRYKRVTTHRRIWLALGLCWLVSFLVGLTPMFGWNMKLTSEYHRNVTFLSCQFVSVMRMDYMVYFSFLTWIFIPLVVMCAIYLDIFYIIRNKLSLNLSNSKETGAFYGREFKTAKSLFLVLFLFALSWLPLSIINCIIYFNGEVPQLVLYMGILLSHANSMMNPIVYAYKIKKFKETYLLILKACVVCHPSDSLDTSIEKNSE
Protocol: Cell culture and membrane preparation. Sf9 cells were cultured in Grace's medium supplemented with 10% fetal bovine serum, 2.5 μg/ml amphotericin B and 50 μg/ml gentamycin in an atmosphere of 50% N2/50% O2. Viral infection was performed at a density of 2.5×10^6 cells/mL with a multiplicity of infection of two for each virus used. Infected cells were harvested 3 days post-infection and washed twice in insect PBS (PBS pH 6.3). Cells were then resuspended in lysis buffer (20 mM HEPES pH 7.5, 150 mM NaCl, 3 mM MgCl2, 1 mM α-mercaptoethanol (BME), 5 μg/mL leupeptin, 5 μg/mL pepstatin A, 1 μg/mL aprotinin, and 0.1 mM PMSF) and snap frozen for storage at −80° C. Cells were thawed on ice, brought to 30 mL total volume in lysis buffer, and burst by N2 cavitation (600 psi for 20 minutes). A low-speed centrifugation was performed to remove any unlysed cells (1000×g for 10 minutes), followed by a high-speed centrifugation (17,000×g for 30 minutes). The pellet from the final centrifugation was homogenized in buffer containing 20 mM HEPES pH 8, 1100 mM NaCl, 1% glycerol, 2 μg/mL leupeptin, 2 μg/mL pepstatin A, 2 μg/mL Aprotinin, 0.1 mM PMSF, and 10 μM GDP using a small glass homogenizer followed by passage through a 26 gauge needle. Membranes were aliquoted, snap frozen in liquid N2, and stored at −80° C. Membranes from cells stably expressing the human A1 AR (CHO K1 cells) or A3 AR (HEK 293 cells) were prepared as described (Robeva et al., 1996).
Radioligand Binding Assays. Radioligand binding to recombinant human A2A receptors in Sf9 cell membranes was performed using either the radiolabeled agonist, ^125I-APE (Luthin et al., 1995) or the radiolabeled antagonist, ^125I-ZM241385 (^125I-ZM). To detect the high affinity, GTPγS-sensitive state of A1 and A3 AR, we used the agonist, ^125I-ABA (Linden et al., 1985; Linden et al., 1993). Binding experiments were performed in triplicate with 5 μg (A2A) or 25 μg (A1 and A3) membrane protein in a total volume of 00.1 mL HE buffer (20 mM HEPES and 1 mM EDTA) with 1 U/mL adenosine deaminase and 5 mM MgCl2 with or without 50 μM GTPγS. Membranes were incubated with radioligands at room temperature for three hours (for agonists) or two hours (for antagonists) in Millipore Multiscreen® 96-well GF/C filter plates and assays were terminated by rapid filtration on a cell harvester (Brandel, Gaithersburg, Md.) followed by 4×150 μl washes over 30 seconds with ice cold 10 mM Tris-HCl, pH 7.4, 10 mM MgCl2. Nonspecific binding was measured in the presence of 50 μM NECA. Competition binding assays were performed as described (Robeva et al., 1996) using 0.5-1 nM ^125I-APE, ^125I-ZM241385, or ^125I-ABA. […] The Ki values for competing compound binding to a single site were derived from IC50 values with correction for radioligand and competing compound depletion as described previously (Linden, 1982).

human A1 AR = biological target: T3, human A1 AR (Homo sapiens, UniProt P30542); experiment: Radioligand competition binding with 125I-ABA, membranes of CHO K1 cells stably expressing the receptor
T3 construct: expressed in transfected cells; membranes
T3 sequence (P30542 1-326): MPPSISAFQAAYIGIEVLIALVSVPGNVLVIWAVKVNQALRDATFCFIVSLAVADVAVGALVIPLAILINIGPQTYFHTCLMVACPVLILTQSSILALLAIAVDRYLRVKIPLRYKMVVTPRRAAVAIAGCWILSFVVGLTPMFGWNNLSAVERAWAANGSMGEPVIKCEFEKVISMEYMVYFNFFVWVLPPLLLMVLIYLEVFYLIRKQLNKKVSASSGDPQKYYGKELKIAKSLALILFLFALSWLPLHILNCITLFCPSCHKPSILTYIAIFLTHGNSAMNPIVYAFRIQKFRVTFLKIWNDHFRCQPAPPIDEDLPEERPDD

[3] = Homo sapiens, Neutrophil, read-out: Functional
[4] = Ki derived from IC50, class symbols
[5] = EC50 of peak chemiluminescence, human PMN, rolipram 100 nM, fMLP, three donors, class symbols, read-out: Functional

Compound | EC50 [1, 3] [nM] | Ki ([2]; class symbols) [nM] | Ki (human A3 AR; [4]) [nM] | Ki (human A1 AR; [4]) [nM] | EC50 ([1]; Homo sapiens, Neutrophil, read-out: Functional (nM)) [nM] | EC50 [1, 5] [nM] | Ki ([2]; Ki derived from IC50) [nM] | Ki (human A3 AR; Ki derived from IC50) [nM] | Ki (human A1 AR; Ki derived from IC50) [nM]
CCNC(=O)[C@H]1O[C@@H](n2cnc3c(N)nc(C#CCC4CCN(C(=O)Oc5ccc(Cl)cc5)CC4)nc32)[C@@H](O)C1O (stereo partly drawn) [Compound 26, N-Ethyl 2-{3-[1-(4-chlorophenyloxycarbonyl)-4-piperidinyl]-1-propyn-1-yl}adenosine-5′-uronamide] | < 1 | < 1 | < 10 | < 100 |  |  |  |  | 
Nc1nc(C#CCC2CCN(C(=O)OCc3ccc([N+](=O)[O-])cc3)CC2)nc2c1ncn2[C@@H]1O[C@H](CO)[C@@H](O)[C@H]1O [Compound 30, 2-{3-[1-((4-Nitro)benzyloxycarbanoyl)piperidin-4-yl]propyn-1-yl}adenosine] | < 10 | < 10 | < 100 | < 100 |  |  |  |  | 
Nc1nc(C#CCC2CCN(C(=O)OCc3ccc([N+](=O)[O-])cc3)CC2)nc2c1ncn2[C@@H]1O[C@H](C(=O)NC2CC2)C(O)[C@@H]1O (stereo partly drawn) [Compound 18, N-Cyclopropyl 2-{3-[1-(4-nitrobenzloxycarbonyl)-4-piperidinyl]-1-propyn-1-yl}adenosine-5′-uronamide] | < 1 | < 1 | < 100 | < 100 |  |  |  |  | 
Cc1ccc(OC(=O)N2CCC(CCCc3nc(N)c4ncn([C@@H]5O[C@H](C(=O)NC6CC6)C(O)[C@@H]5O)c4n3)CC2)cc1 (stereo partly drawn) [Compound 39] |  | < 100 | > 100 | > 100 | < 100 |  |  |  | 
CCNC(=O)[C@H]1O[C@@H](n2cnc3c(N)nc(C#CCC4CCN(C(=O)Oc5ccc(OC)cc5)CC4)nc32)[C@@H](O)C1O (stereo partly drawn) [Compound 15, N-Ethyl 2-{3-[1-(4-methoxyphenoxycarbonyl)-4-piperidinyl]-1-propyn-1-yl}adenosine-5′-uronamide] | < 1 | < 1 | < 10 | < 100 |  |  |  |  | 
Nc1nc(C#CCC2CCN(C(=O)Oc3ccc([N+](=O)[O-])cc3)CC2)nc2c1ncn2[C@@H]1O[C@H](C(=O)NC2CC2)C(O)[C@@H]1O (stereo partly drawn) [Compound 10, N-Cyclopropyl 2-{3-[1-(4-nitrophenyloxycarbonyl)-4-piperidinyl]-1-propyn-1-yl}adenosine-5′-uronamide] | < 1 | < 1 | < 100 | < 100 |  |  |  |  | 
N=C(Oc1ccc(F)cc1)N1CCC(CC#Cc2nc(N)c3ncn([C@@H]4O[C@H](C(=O)NC5CC5)[C@@H](O)[C@H]4O)c3n2)CC1 [Compound 41, N-Cyclopropyl 2-{3-[1-(4-fluorophenyloxycarboxymidyl)-4-piperidinyl]-1-propyn-1-yl}adenosine-5′-uronamide] |  | < 10 | > 100 | < 100 |  | < 10 |  |  | 
Cc1ccc(OC(=O)N2CCC(CC#Cc3nc(N)c4ncn([C@@H]5O[C@H](C(=O)NC6CC6)C(O)[C@@H]5O)c4n3)CC2)cc1 (stereo partly drawn) [Compound 20, N-Cyclopropyl 2-{3-[1-(4-methylphenyloxycarbonyl)-4-piperidinyl]-1-propyn-1-yl}adenosine-5′-uronamide] | < 1 | < 1 | > 100 | < 100 |  |  |  |  | 
Nc1nc(C#CCC2CCN(C(=O)Oc3ccccc3)CC2)nc2c1ncn2[C@@H]1O[C@H](C(=O)NC2CC2)C(O)[C@@H]1O (stereo partly drawn) [Compound 1, N-Cyclopropyl 2-{3-[1-(phenyloxycarbonyl)-4-piperidinyl]-1-propyn-1-yl}adenosine-5′-uronamide, reference compound] | 0.56 |  |  |  |  |  | 0.563 | 34.1 | 34.7
Nc1nc(C#CCC2CCN(C(=O)Oc3cccc(C(F)(F)F)c3)CC2)nc2c1ncn2[C@@H]1O[C@H](C(=O)NC2CC2)C(O)[C@@H]1O (stereo partly drawn) [Compound 3, N-Cyclopropyl 2-{3-[1-(3-(trifluoromethyl)phenoxycarbonyl)-4-piperidinyl]-1-propyn-1-yl}adenosine-5′-uronamide] | < 10 | < 1 | < 100 | < 100 |  |  |  |  | 
N-Cyclopropyl 2-[3-[1-(4-nitrophenoxycarbonyl) 4-propylpiperidine]}-1-carboxylate]adenosine-5′-uronamide [Compound 40] |  |  | > 100 |  |  | < 100 |  |  | 

Reference: patent publication US7888329B2, “Substituted aryl piperidinylalkynyladenosines as A2AR agonists” (PGxHealth, LLC, priority 2006, dated 2011)
